{"source": "patent US12090147B2", "about": "“Combination therapy with 2-(4-chlorophenyl)-N-((2-(2,6-dioxopiperidin-3-yl)-1-oxoisoindolin-5-yl)methyl)-2,2-difluoroacetamide” (Celgene Corporation, priority 2019, dated 2024)", "origin": "cited, not measured here", "test_system": "acute myeloid leukemia (AML) at relapse", "conditions": "administered alone; cited from earlier work", "data": [{"substance": "CT-011: anti-PD-1 antibody, a humanized antibody", "values": [{"measurement": "Response in treating AML at relapse", "value": "failed to show response"}]}]}
